Holding throughout (format): biochemical
Experiment [1] has as its system Oxford sialidase. The experiment is described as follows: Turner luminometer assay, incubation with Oxford sialidase at pH 5.5, then AMP pH 10 injection (Experiments 1-3). How it is done: Next, 0.2 units of Oxford Enzyme were diluted with 400 microliters of […]. 200 microliters of the enzyme (0.1 units) were then treated with 10 microliters of the dioxetane stock and incubated at 37° C. for 15 minutes. The solution was then placed in a Turner luminometer. Light was detected at a constant 80 RLU at a pH of 5.5. All Turner readings were calibrated to 31.5° C.
5 microliters of the dioxetane stock prepared in Experiment 1 was added to 0.05 units of Oxford sialidase in 200 microliters of the pH 5.5 buffer. The solution (approximately a 110 micromolar substrate) was incubated at 37° C. for 15 minutes. The solution was then placed in a Turner luminometer, and steady light emission at about 55 RLU was noted (see FIG. 6). Next, 400 microliters of AMP pH 10 buffer was injected to produce an off-scale light spike (i.e., greater than 10,000 RLU).
Experiment 2 was repeated with a 110 micromolar substrate in the presence of 0.025 units of the enzyme. FIG. 7 illustrates that at a pH of 5.5, the light level obtained (56 RLU) was similar to that obtained in Experiment 2. […] Next, an additional 400 microliters of the AMP pH 10 buffer was added, which produced a light peak at 8860 RLU and similar decay kinetics as in Experiment 2.

Experiment [2] has as its system Oxford sialidase. As to the kind of experiment: One step chemiluminescence at pH 7.7 after adding Oxford sialidase (Experiment 6). The following applies: pH 7.7, 0.25 units sialidase. The procedure: After incubation, 0.25 units of Oxford sialidase in 50 microliters of 50 micromolar acetate buffer was added. Chemiluminescence was spontaneously produced, rising to a maximum of 1380 RLU at 3.25 minutes (see FIG. 10).

Experiment [3] has as its system sialidase. The text has this:
FIG. 12A is a graph showing chemiluminescence (RLU) as a function of sialidase dilution using a methylumbelliferyl-N-acetylneuraminic acid salt fluorescent substrate in a 0.05 M sodium acetate/0.1M NaCl buffer.
FIG. 12B is a graph showing signal to noise ratio (S/N) as a function of sialidase dilution for a methylumbelliferyl-N-acetylneuraminic acid salt fluorescent substrate in a 0.05 M sodium acetate/0.1M NaCl buffer.
The results and conditions are summarized in Table B and depicted graphically in FIGS. 12A and 12B.

Experiment [4] deals with sialidase. The source holds these as a separate data set.

Read-outs that look alike come from different tables or passages of the source.

As to `COC1(c2ccc(Cl)c(O[C@]3(C(=O)[O-])C[C@H](O)[C@@H](NC(C)=O)[C@H]([C@H](O)[C@H](O)CO)O3)c2)OOC12C1CC3CC2CC(Cl)(C3)C1.[Na+]` (stereo partly drawn) [dioxetane 489-102], the “light peak after AMP pH 10 buffer” value in the experiment on Oxford sialidase [1] (0.025 units enzyme) came out at 8860 RLU. Also, the “light level at pH 5.5” value in the experiment with Oxford sialidase [1] (0.025 units enzyme, 110 micromolar substrate) turned out to be 56 RLU. In addition, in the experiment with Oxford sialidase [1] (0.05 units sialidase), the “light emission relative to no enzyme noise at pH 5.5” value was “about 275 times” and the “light spike after AMP pH 10 buffer” value is recorded as “greater than 10,000 RLU”. Besides, in the experiment with Oxford sialidase [1] (0.05 units sialidase, approximately 110 micromolar substrate, 37° C. 15 minutes), the “steady light emission at pH 5.5” value is listed as “about 55 RLU”. Further, the “correlation of light emission at pH 5.5 with enzyme concentration” value in the experiment with Oxford sialidase [1] (0.05 versus 0.025 units) is recorded as “did not correlate with enzyme concentration”. In addition, in the experiment with Oxford sialidase [1] (0.1 units enzyme), the “peak light emission after 0.1 AMP pH 10 injection” value was “greater than 10,000 RLU”. Further, the “light detected at pH 5.5” value in the experiment with Oxford sialidase [1] (0.1 units enzyme, 10 microliters stock, 37° C. 15 minutes) worked out at 80 RLU. In addition, the “substrate consumption during the incubation time” value in the experiment with Oxford sialidase [1] (0.1 units enzyme, 37° C. 15 minutes) was “near complete substrate consumption”. Further, the “time of maximum chemiluminescence” value in the experiment with Oxford sialidase [2] came out at 3.25 min. In the experiment on Oxford sialidase [2] (31.5° C.), this compound came in with a maximum chemiluminescence of 1380 RLU.

For “Methylumbelliferyl-N-acetylneuraminic acid salt”, the RLU in the experiment with sialidase [3] is given as 75078 RLU; in the experiment with sialidase [3] (dilution 1000) it was 4209078 RLU; in the experiment with sialidase [3] (dilution 5000), 1171002 RLU; in the experiment with sialidase [3] (dilution 25000), 263218 RLU; with sialidase [3] (dilution 625000) it was 32200 RLU; in the experiment on sialidase [3] (dilution 3125000), 27538 RLU. The RLU in the experiment with sialidase [3] (dilution 15625000) is given as 28231 RLU. The S/N in the experiment with sialidase [3] stood at 2.74; with sialidase [3] (dilution 1000), 153.62; with sialidase [3] (dilution 5000), 42.74; in the experiment with sialidase [3] (dilution 25000), 9.61; in the experiment on sialidase [3] (dilution 625000), 1.18; with sialidase [3] (dilution 3125000), 1.01. This compound came in with a S/N in the experiment on sialidase [3] (dilution 15625000) of 0.96. Moreover, the “sensitivity compared with neuraminidase-Star substrate” value with sialidase [4] is reported as “inferior sensitivity”. Further, the signal-to-noise ratio in the experiment on sialidase [4] (dilution of 1:40,000) turned out to be 1.79.

Source of the values: patent publication US6555698B1, “Chemiluminescent substrates for neuraminidase, assays for detection of neuraminidase and kits therefor” (Tropix, Inc., priority 1998, dated 2003).
